From ChEMBL document CHEMBL1141101, “Design, synthesis, and biological activity of m-tyrosine-based 16- and 17-membered macrocyclic inhibitors of hepatitis C virus NS3 serine protease” (J Med Chem, 2005)
Numbered stars: 1 amine (or outer) side, 2 acyl side, 3 side chain; on linkers, the order of the positions; unused ones are H or OH. Square brackets hold non-standard residues; d marks the D form. Peptide text beside a SMILES is read from it. * marks the point of attachment. Phe(3-CF3) = N[C@@H](Cc1cccc(C(F)(F)F)c1)C(=O)O; X1 = CCCC(N[*:1])C(=O)C(=O)[*:2]; Chg = N[C@H](C(=O)O)C1CCCCC1; Phg = N[C@H](C(=O)O)c1ccccc1; Boc = CC(C)(C)OC(=O)*

What follows are compounds tested against NS3 (Hepatitis C virus, UniProt A3EZJ3) (assay: Binding affinity for HCV NS3 protease measured by HCV continuous assay).
NS3, sequence (A3EZJ3 whole entry): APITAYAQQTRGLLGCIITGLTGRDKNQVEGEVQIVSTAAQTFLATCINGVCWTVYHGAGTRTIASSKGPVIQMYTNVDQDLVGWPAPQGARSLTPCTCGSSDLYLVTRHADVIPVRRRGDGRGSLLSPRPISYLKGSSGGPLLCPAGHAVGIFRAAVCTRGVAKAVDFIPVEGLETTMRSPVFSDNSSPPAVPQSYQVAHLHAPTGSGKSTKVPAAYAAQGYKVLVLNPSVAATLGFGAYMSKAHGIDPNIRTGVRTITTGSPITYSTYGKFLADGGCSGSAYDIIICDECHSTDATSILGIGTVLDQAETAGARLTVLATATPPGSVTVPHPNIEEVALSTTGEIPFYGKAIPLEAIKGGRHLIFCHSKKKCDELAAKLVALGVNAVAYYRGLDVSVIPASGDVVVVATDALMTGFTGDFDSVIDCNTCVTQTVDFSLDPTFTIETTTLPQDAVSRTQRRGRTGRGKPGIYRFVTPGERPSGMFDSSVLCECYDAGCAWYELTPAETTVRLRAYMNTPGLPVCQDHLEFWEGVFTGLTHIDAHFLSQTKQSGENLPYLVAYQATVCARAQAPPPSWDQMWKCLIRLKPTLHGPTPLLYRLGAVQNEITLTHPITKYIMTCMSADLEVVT
Set-up: species or system Hepacivirus hominis

SMILES	Ki [nM]
CCCC(NC(=O)[C@@H]1Cc2cccc(c2)OCCCCCCC(=O)N[C@@H](C2CCCCC2)C(=O)N1)C(=O)C(=O)NCC(=O)N[C@H](C(=O)N(C)C)c1ccccc1 (some centres not stated)	310
CCCC(NC(=O)[C@@H]1Cc2cccc(c2)OCCCCCC(=O)N[C@@H](C2CCCCC2)C(=O)N1)C(=O)C(=O)NCC(=O)N[C@H](C(=O)OC(C)(C)C)c1ccccc1 (some centres not stated)	> 8900
CCCC(NC(=O)[C@H](Cc1cccc(C(F)(F)F)c1)NC(=O)[C@@H](NC(=O)OC(C)(C)C)C1CCCCC1)C(=O)C(=O)NCC(=O)N[C@H](C(N)=O)c1ccccc1 (some centres not stated) (Boc-[Chg][Phe(3-CF3)][X1]G[Phg]-NH2)	8000
CCCC(NC(=O)[C@@H]1Cc2cccc(c2)OCCCCCCC(=O)N[C@@H](C2CCCCC2)C(=O)N1)C(=O)C(=O)NCC(=O)N[C@H](C(=O)OC(C)(C)C)c1ccccc1 (some centres not stated)	5500
CCCC(NC(=O)[C@@H]1Cc2cccc(c2)OCCCCCC(=O)N[C@@H](C2CCCCC2)C(=O)N1)C(=O)C(=O)NCC(=O)N[C@H](C(=O)O)c1ccccc1 (some centres not stated)	1200

The next compounds have a lower Ki than those just listed; values first:

Ki [nM]	SMILES
160	CCCC(NC(=O)[C@@H]1Cc2cccc(c2)OCCCCCCC(=O)N[C@@H](C2CCCCC2)C(=O)N1)C(=O)C(=O)NCC(=O)N[C@H](C(=O)O)c1ccccc1 (some centres not stated)
170	CCCC(NC(=O)[C@@H]1Cc2cccc(c2)OCCCCCCC(=O)N[C@@H](C2CCCCC2)C(=O)N1)C(=O)C(=O)NCC(=O)N[C@H](C(=O)NC)c1ccccc1 (some centres not stated)
